As a reminder, the inhibition is the percentage by which the read-out fell short of the control.

The target in assay [1] is T1, Tyrosine-protein phosphatase non-receptor type 1 (Rattus norvegicus) (UniProt P20417).
T1 sequence (whole entry): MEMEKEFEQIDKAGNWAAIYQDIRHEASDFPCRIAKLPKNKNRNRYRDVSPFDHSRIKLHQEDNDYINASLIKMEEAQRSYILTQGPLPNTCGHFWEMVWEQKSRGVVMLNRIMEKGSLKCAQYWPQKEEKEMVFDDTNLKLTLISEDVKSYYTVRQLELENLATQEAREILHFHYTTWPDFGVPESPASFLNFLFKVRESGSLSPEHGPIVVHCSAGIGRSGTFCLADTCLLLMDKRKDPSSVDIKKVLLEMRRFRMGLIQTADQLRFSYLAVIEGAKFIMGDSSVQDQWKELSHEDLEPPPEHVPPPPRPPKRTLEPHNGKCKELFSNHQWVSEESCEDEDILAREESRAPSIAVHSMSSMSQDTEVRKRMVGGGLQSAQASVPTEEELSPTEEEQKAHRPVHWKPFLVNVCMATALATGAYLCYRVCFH
Put plainly: Inhibition of PTP1B in Rattus norvegicus (rat) L6 cells assessed as increase in 2-deoxy-D-[U-14C]-glucose uptake at 50 uM after 18 hr relative to control. In kind it is cell-based.

In assay [2] the target is T2, Tyrosine-protein phosphatase non-receptor type 1 (Homo sapiens) (UniProt P18031).
T2 sequence (whole entry): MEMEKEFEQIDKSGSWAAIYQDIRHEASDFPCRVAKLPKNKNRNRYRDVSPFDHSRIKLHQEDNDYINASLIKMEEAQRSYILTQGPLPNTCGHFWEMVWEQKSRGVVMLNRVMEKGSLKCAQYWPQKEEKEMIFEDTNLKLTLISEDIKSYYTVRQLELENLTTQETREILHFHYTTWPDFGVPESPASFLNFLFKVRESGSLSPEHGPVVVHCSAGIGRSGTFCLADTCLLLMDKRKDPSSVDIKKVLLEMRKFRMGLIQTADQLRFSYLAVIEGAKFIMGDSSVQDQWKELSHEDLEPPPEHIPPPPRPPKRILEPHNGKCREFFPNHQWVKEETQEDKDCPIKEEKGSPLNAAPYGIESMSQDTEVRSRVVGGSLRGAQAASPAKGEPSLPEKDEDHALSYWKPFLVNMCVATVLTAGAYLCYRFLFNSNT
Put plainly: Inhibition of Homo sapiens (human) recombinant PTP1B assessed as decrease in free phosphate release at 10 uM by malachite staining relative to control.

Regarding `Cc1cccc2[nH]c(SCC(=O)Nc3cc(C(=O)O)ccc3Cl)nc12`, the inhibition was determined as 31.4% in assay [1] and 20.9% in assay [2].

For `O=C(CSc1nc2c([N+](=O)[O-])cccc2[nH]1)Nc1cc(C(=O)O)ccc1Cl`, the results for the inhibition in assay [1] and in assay [2] were 37.6% and 36.6%, respectively.

`COc1cccc2[nH]c(SCC(=O)Nc3cc(C(=O)O)ccc3Cl)nc12`: the inhibition in assay [1] came out at 26.6%; in assay [2], 62.7%.

Regarding `O=C(CSc1nc2ccccc2s1)Nc1ccc(C(=O)O)cc1`, the inhibition was 39.6% in assay [1] and 66.4% in assay [2].

Consider `O=C(CSc1nc2ccccc2s1)Nc1cc(C(=O)O)ccc1Cl`, for which the inhibition in assay [1] turned out to be 28.7%; in assay [2], 56.2%.

As for `O=C(CSc1nc2ccccc2[nH]1)Nc1ccc(C(=O)O)cc1`, the results for the inhibition in assay [1] and in assay [2] were 22.5% and 18.7%, respectively.

Regarding `O=C(CSc1nc2ccccc2[nH]1)Nc1cc(C(=O)O)ccc1O`, the inhibition turned out to be 58.6% in assay [1] and 23.2% in assay [2].

Take `O=C(CSc1nc2ccccc2s1)Nc1cccc(C(=O)O)c1`: the inhibition in assay [1] was 59.2%; in assay [2] it was 24.2%.

As for `O=C(CSc1nc2ccccc2[nH]1)Nc1cc(C(=O)O)ccc1Cl`, the inhibition in assay [1] came out at 28.7%; in assay [2], 35.8%.

With `O=C(CSc1nc2ccccc2s1)Nc1cc(C(=O)O)ccc1O`, the results for the inhibition in assay [1] and in assay [2] were 29.2% and 53.9%, respectively.

The record behind these values is ChEMBL document CHEMBL3045484, “Molecular modeling and synthesis of ZINC02765569 derivatives as protein tyrosine phosphatase 1B inhibitors: lead optimization study” (Med Chem Res, 2013).
